The test concerns the target T1, mAdpn (Mus musculus, UniProt Q91WW7).
T1 sequence (Q91WW7 1-413): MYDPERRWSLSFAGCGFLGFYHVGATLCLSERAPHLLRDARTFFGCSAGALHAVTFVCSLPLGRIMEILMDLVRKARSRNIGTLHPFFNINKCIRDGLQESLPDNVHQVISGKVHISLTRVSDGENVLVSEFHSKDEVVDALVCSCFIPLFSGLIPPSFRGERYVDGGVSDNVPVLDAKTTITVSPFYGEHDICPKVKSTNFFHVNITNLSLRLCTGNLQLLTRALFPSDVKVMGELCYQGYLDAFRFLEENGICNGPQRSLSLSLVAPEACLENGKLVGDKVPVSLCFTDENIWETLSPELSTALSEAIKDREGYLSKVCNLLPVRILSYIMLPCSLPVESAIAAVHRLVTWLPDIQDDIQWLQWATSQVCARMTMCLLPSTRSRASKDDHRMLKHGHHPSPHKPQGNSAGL
Nature of the test: radiometric LPAAT assay, TLC, Michaelis-Menten fit. The class given is biochemical. Particulars: co-substrate LPA; labelled compound [1-14C].

Usually Km stands for the substrate concentration at which the rate is half of its maximum. For `CCCCCCCC/C=C\CCCCCCCC(=O)SCCNC(=O)CCNC(=O)[C@H](O)C(C)(C)COP(=O)(O)OP(=O)(O)OC[C@H]1O[C@@H](n2cnc3c(N)ncnc32)[C@H](O)[C@@H]1OP(=O)(O)O` [oleoyl-CoA], the Km was 12.5 µM.

For the origin of these results see paper PMC3361708 (Cell Metabolism, 2012).
